Assay results from patent US5480885A, “Ergoline derivatives of 1-propinylamine, a process for the manufacture thereof and the use thereof for medicaments” (priority 1991, dated 1996).
“Also recorded” adds a separate entry of the source. Like-named read-outs stand apart in the source and are kept apart here.

Key:
[1] = target: T1, 5-HT2 receptors (Mus musculus, UniProt P35363); experiment: head twitch response caused by the compound in mice; assay type: in vivo
T1 construct: The head twitch model in mice; from tissue; host or cells: living mice (central nervous system)
T1 sequence (P35363 whole entry): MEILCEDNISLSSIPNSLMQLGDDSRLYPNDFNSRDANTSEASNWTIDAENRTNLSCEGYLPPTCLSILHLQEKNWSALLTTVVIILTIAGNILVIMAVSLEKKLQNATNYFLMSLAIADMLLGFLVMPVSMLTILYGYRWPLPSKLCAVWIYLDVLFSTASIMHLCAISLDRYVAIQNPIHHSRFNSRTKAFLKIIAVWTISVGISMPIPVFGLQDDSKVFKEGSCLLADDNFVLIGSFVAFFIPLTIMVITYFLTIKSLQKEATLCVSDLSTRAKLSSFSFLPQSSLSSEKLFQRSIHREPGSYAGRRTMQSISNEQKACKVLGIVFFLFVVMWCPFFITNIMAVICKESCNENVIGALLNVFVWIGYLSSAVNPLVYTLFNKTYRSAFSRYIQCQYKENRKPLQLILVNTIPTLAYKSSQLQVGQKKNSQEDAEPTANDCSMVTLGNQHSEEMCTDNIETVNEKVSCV
Source text: The head twitch model in mice represents an experimental model for determining the hallucinogenic action of a compound (the method was described by Handley and Singh, Br.J.Pharmacol., 86, 297-303, 1985). It is believed that the response is conveyed via the 5-HT2 receptors.

[2] = test system: pupil; experiment: dilatation of the pupil in mice (Pulewka); assay type: in vivo; settings: in words
[3] = test system: isolated rabbit thoracic aorta; experiment: constriction of the isolated rabbit thoracic aorta; settings: for EC50: Oryctolagus cuniculus
[4] = test system: pithed rats; experiment: vasoconstriction / diastolic pressure in pithed rats (Gillespie); assay type: in vivo, rat; settings: 450 μg/kg i.v.; in words
[5] = target: T2, isolated rabbit thoracic aorta (serotonin) (Oryctolagus cuniculus, UniProt G1SYA7)
T2 construct: isolated rabbit thoracic aorta; from tissue; host or cells: isolated rabbit thoracic aorta
T2 sequence (G1SYA7 entry or part of it): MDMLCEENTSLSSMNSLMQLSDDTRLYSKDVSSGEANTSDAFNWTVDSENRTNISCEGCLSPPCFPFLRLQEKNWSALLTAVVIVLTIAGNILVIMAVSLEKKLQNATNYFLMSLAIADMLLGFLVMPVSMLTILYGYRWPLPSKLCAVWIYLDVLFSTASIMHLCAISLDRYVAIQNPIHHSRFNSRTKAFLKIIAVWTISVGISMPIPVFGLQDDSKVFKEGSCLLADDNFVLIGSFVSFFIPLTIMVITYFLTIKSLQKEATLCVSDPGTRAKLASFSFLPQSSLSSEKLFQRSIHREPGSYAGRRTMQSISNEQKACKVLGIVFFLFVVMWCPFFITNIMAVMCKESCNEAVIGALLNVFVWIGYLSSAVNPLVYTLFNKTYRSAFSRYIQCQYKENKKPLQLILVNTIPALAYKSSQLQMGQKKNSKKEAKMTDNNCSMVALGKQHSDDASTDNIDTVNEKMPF

[6] = test system: isolated rat uterus; experiment: uterotonic activity (isolated rat uterus); settings: in words
[7] = test system: pentobarbital-anesthetized normotensive rats; experiment: blood pressure and heart rate in pentobarbital-anesthetized normotensive rats; assay type: in vivo, rat; settings: 450 μg/kg i.v.
[8] = acute toxicity in mice (Miller and Tainter); settings: mouse, in vivo, intravenous
Source text: Exptl. Biol. Med. 57, 261 (1944).

## C#CCN(C)C(=O)[C@@H]1C=C2c3cccc4[nH]cc(c34)C[C@H]2N(C)C1 [Example 4, 9,10-Didehydro-N-methyl-N-(2'-propinyl)-6-methylergoline-8β-carboxamide]
[1]; 0.125 to 4 mg/kg i.p., in words
  head twitch response caused by compound: caused a head twitch response in mice; also recorded: at higher doses the activity decreased (autoinhibitory effect)
[1]; i.p.
  dose of maximum head twitch activity: 1 mg/kg
[2]; dose-dependent, dose not given
  dilatation of the pupil: dose-dependent dilatation of the pupil
[2]
  behavioural effects in mice: an increased activity, tremor and piloerection
[3]; 0.39 μM (EC50)
  receptors responsible for vasoconstriction: predominantly the result of the activation of α1 -adrenergic receptors and to a lesser extent of the activation of 5-HT2 receptors
[3]; constriction of the isolated rabbit thoracic aorta, read-out: pD2 (converted)
  EC50: 389 nM
[3]; vasoconstriction, read-out: EC50
  EC50: 390 nM
[3]; in words
  constriction of the isolated rabbit thoracic aorta: caused a constriction of the isolated rabbit thoracic aorta
[3]; in words, vs serotonin
  intrinsic activity, aorta constriction: comparable to that of serotonin
[4]
  peripheral vasoconstriction: transient, yet extraordinarily strong peripheric vasoconstriction
[5]; in words
  mode of inhibition of serotonin constriction: the antagonism was of competitive nature
[5]; inactivated α1-adrenergic receptors, 0.01 to 0.3 μM
  serotonin-antagonistic activity: showed a serotonin-antagonistic activity
[5]; inactivated α1-adrenergic receptors, higher doses
  effect on maximum activity of serotonin: noticeable decrease of the maximum activity of serotonin
[5]; vs serotonin, inactivated α1-adrenergic receptors, smaller doses (0.1 μM), read-out: pA2 (converted)
  Kb: 4.27 nM
[6]
  uterotonic activity: lesser than the one of methylergometrine maleate
[7]
  respiratory troubles: respiratory troubles could be perceived
[7]; in words
  effect on carotid artery pressure: statistically non-significant changes in carotid artery pressure
[7]; vs initial level
  reduction in heart rate: 20%
[8]
  LD50: 55 mg/kg
